From the supplement of paper PMC4862054

Tests used:
CAL-120 [1] = conditions: 72 h
Method in brief: (§1)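 After 72 h on 384-well plates pre-loaded with compound in 5 µl medium, breast cancer cell lines seeded in 20 µl were assayed for viability with 2.5 µl CellTiter-Blue at 37 °C for 2 h, read at 560/590 nm. Each plate was quality-checked by Z'-factor and normalised to vehicle and a positive kill control. EC50 comes from the fitted percent-inhibition dose-response curve, censored at the top concentration, and rows scoring zero for drug sensitivity were left out.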

HCC1599 [2] = conditions: 72 h
Method in brief: as §1

HCC1143 [3] = conditions: 72 h
Method in brief: as §1

HCC1937 [4] = conditions: 72 h
Method in brief: as §1

MDA-MB-468 [5] = conditions: 72 h
Method in brief: as §1

MFM-223 [6] = conditions: 72 h
Method in brief: as §1

DU-4475 [7] = experiment: normalised viability (% of control), CellTiter-Blue; higher = more viable cells (about 100 = DMSO control); conditions: incubation time: 72 h
Method in brief: (§2)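 Breast cancer cell lines were treated for 72 h in 384-well format and measured by CellTiter-Blue fluorescence at 560/590 nm. Results were normalised per plate to vehicle (100) and a positive kill control (0). The entry is normalised viability at a single listed concentration of the series.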

HDQ-P1 [8] = experiment: as above; conditions: incubation time: 72 h
Method in brief: as §2

CAL-51 [9] = experiment: as above; conditions: incubation time: 72 h
Method in brief: as §2

MDA-MB-453 [10] = experiment: as above; conditions: incubation time: 72 h
Method in brief: as §2

CAL-148 [11] = experiment: as above; conditions: incubation time: 72 h
Method in brief: as §2

CAL-85-1 [12] = experiment: as above; conditions: incubation time: 72 h
Method in brief: as §2

MCF-10A = experiment: normalised response (% of control), CellTiter-Glo; higher = more viable cells (100 = DMSO, 0 = benzethonium chloride kill control); conditions: incubation time: 72 h
Experimental: (§3)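 DSRT, 72 h incubation, CellTox Green / CellTiter-Glo readout. Signal is normalised to DMSO and benzethonium chloride controls. Value is the normalised response at the highest dose.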

MDA-MB-231 = experiment: as above; conditions: incubation time: 72 h
Experimental: as §3

DU-4475 [13] = experiment: as above; conditions: incubation time: 72 h
Experimental: as §3

MDA-MB-436 = experiment: as above; conditions: incubation time: 72 h
Experimental: as §3

CAL-120 [14] = experiment: as above; conditions: incubation time: 72 h
Experimental: as §3

HDQ-P1 [15] = experiment: as above; conditions: incubation time: 72 h
Experimental: as §3

HCC1599 [16] = experiment: as above; conditions: incubation time: 72 h
Experimental: as §3

CAL-51 [17] = experiment: as above; conditions: incubation time: 72 h
Experimental: as §3

Hs578T = experiment: as above; conditions: incubation time: 72 h
Experimental: as §3

HCC1143 [18] = experiment: as above; conditions: incubation time: 72 h
Experimental: as §3

MDA-MB-453 [19] = experiment: as above; conditions: incubation time: 72 h
Experimental: as §3

HCC1937 [20] = experiment: as above; conditions: incubation time: 72 h
Experimental: as §3

CAL-148 [21] = experiment: as above; conditions: incubation time: 72 h
Experimental: as §3

MDA-MB-468 [22] = experiment: as above; conditions: incubation time: 72 h
Experimental: as §3

MFM-223 [23] = experiment: as above; conditions: incubation time: 72 h
Experimental: as §3

BT-474 = experiment: as above; conditions: incubation time: 72 h
Experimental: as §3

CAL-85-1 [24] = experiment: as above; conditions: incubation time: 72 h
Experimental: as §3

SK-BR-3 = experiment: as above; conditions: incubation time: 72 h
Experimental: as §3

BT-549 = experiment: as above; conditions: incubation time: 72 h
Experimental: as §3

SMILES	EC50, CellTiter-Blue viability (CAL-120 [1])	EC50, CellTiter-Blue viability (HCC1599 [2])	EC50, CellTiter-Blue viability (HCC1143 [3])	EC50, CellTiter-Blue viability (HCC1937 [4])	EC50, CellTiter-Blue viability (MDA-MB-468 [5])	EC50, CellTiter-Blue viability (MFM-223 [6])	normalised viability (DU-4475 [7])	normalised viability (HDQ-P1 [8])	normalised viability (CAL-51 [9])	normalised viability (MDA-MB-453 [10])	normalised viability (CAL-148 [11])	normalised viability (CAL-85-1 [12])	normalised response (MCF-10A)	normalised response (MDA-MB-231)	normalised response (DU-4475 [13])	normalised response (MDA-MB-436)	normalised response (CAL-120 [14])	normalised response (HDQ-P1 [15])	normalised response (HCC1599 [16])	normalised response (CAL-51 [17])	normalised response (Hs578T)	normalised response (HCC1143 [18])	normalised response (MDA-MB-453 [19])	normalised response (HCC1937 [20])	normalised response (CAL-148 [21])	normalised response (MDA-MB-468 [22])	normalised response (MFM-223 [23])	normalised response (BT-474)	normalised response (CAL-85-1 [24])	normalised response (SK-BR-3)	normalised response (BT-549)
COc1ncc(-c2ccc3nccc(-c4ccnnc4)c3c2)cc1NS(=O)(=O)c1ccc(F)cc1F	20.1 nM	7.37 nM	19.8 nM	27.9 nM	49.8 nM	8.62 nM																									
C[C@@]1(C(=O)Nc2ccc(F)nc2)CCCN1c1nc(Nc2cc(C3CC3)n[nH]2)c2cccn2n1	1930 nM	70.8 nM	258 nM	3300 nM	772 nM	1310 nM																									
COc1c(C)cnc(Cn2cnc3c(Cl)nc(N)nc32)c1C [BIIB021]	26.9 nM	721 nM	64 nM	87.1 nM	353 nM	57.7 nM																									
CC(C)C[C@H](NC(=O)[C@H](Cc1ccccc1)NC(=O)c1cnccn1)B(O)O [Bortezomib]	5.42 nM	79.5 nM	6.46 nM	2.93 nM	2.95 nM	6.67 nM																									
CS(=O)(=O)OCCCCOS(C)(=O)=O [Busulfan]				77100 nM																											
C#Cc1cccc(Nc2ncnc3cc(OC)c(OCCCCCCC(=O)NO)cc23)c1 [CUDC-101]	294 nM	295 nM	361 nM	770 nM	200 nM	145 nM																									
CN1CCN(c2ccc3nc(-c4c(N)c5c(F)cccc5[nH]c4=O)[nH]c3c2)CC1 [Dovitinib]				371 nM																											
O=c1[nH]c(=O)n([C@H]2C[C@H](O)[C@@H](CO)O2)cc1F [Floxuridine]	118 nM	> 10000 nM	1630 nM	4070 nM	48.9 nM																										
O=c1[nH]cc(F)c(=O)[nH]1 [Fluorouracil]	2530 nM	2520 nM			> 10000 nM																										
C[C@@H]1C=C2C(=O)O[C@@H]3CC[C@H](C1)[C@]23O [Galiellalactone]				16400 nM	7120 nM	38200 nM																									
CS(=O)(=O)CCNCc1ccc(-c2ccc3ncnc(Nc4ccc(OCc5cccc(F)c5)c(Cl)c4)c3c2)o1 [Lapatinib]	6920 nM	191 nM		6280 nM	1560 nM	9850 nM																									
Cn1cnc2c(F)c(Nc3ccc(Br)cc3F)c(C(=O)NOCCO)cc21 [MEK-162]		106 nM	9.21 nM																												
CCOc1cc2ncc(C#N)c(Nc3ccc(OCc4ccccn4)c(Cl)c3)c2cc1NC(=O)/C=C/CN(C)C [Neratinib] (1000 nM)							105%	116%	92.5%	75.8%	79.5%	101%	25.4%	74.2%	95.3%	56.3%	68.4%	46.3%	95.5%	45%	72.3%	72.7%	63.7%	66.1%	68.8%	36.4%	62.8%	79.1%	42.6%	16.2%	56.1%
COc1ccc(C2=N[C@@H](c3ccc(Cl)cc3)[C@@H](c3ccc(Cl)cc3)N2C(=O)N2CCNC(=O)C2)c(OC(C)C)c1 [Nutlin-3] (10000 nM)							36.1%	111%	53.3%	90%	57.3%	86.6%	89.2%	91.9%	72.7%	102%	100%	97.1%	98.5%	50.7%	102%	92.9%	68.7%	97.6%	71.4%	78.9%	93.3%	93.3%	97.3%	99.1%	87%
COC1=CC(c2cc3ccccc3[nH]2)=N/C1=C\c1[nH]c(C)cc1C [Obatoclax] (10000 nM)							30%	35.5%	6.23%	18.6%	10.8%	22.1%	95.8%	66.9%	84%	81.6%	92.5%	91.1%	88.2%	7.62%	74.7%	92%	57.5%	67.7%	76.5%	79.3%	71.2%	70.5%	76.3%	64.3%	29.3%
CC(=O)O[C@H]1C(=O)[C@@]2(C)[C@H]([C@H](OC(=O)c3ccccc3)[C@]3(O)C[C@H](OC(=O)[C@H](O)[C@@H](NC(=O)c4ccccc4)c4ccccc4)C(C)=C1C3(C)C)[C@]1(OC(C)=O)CO[C@@H]1C[C@@H]2O [Paclitaxel] (1000 nM)							1.41%	32.7%	10.7%	21%	14.7%	33.1%	32.3%	25.3%	34.8%	27%	48.9%	61.2%	33.6%	26.2%	9.73%	31.2%	51.5%	64.7%	44.1%	23.9%	38.8%	29.5%	20.4%	11.2%	12.1%
CC(C)(C)c1cc(NC(=O)Nc2ccc(-c3cn4c(n3)sc3cc(OCCN5CCOCC5)ccc34)cc2)no1 [Quizartinib]		878 nM																													
CC(C)(C)c1cc(NC(=O)Nc2ccc(-c3cn4c(n3)sc3cc(OCCN5CCOCC5)ccc34)cc2)no1 [Quizartinib] (1000 nM)							112%	111%	103%	60.2%	91.3%	89.6%	109%	113%	105%	109%	112%	103%	88.6%	125%	92.6%	108%	97%	104%	108%	114%	105%	101%	106%	103%	91.7%
O=C(c1ccc(OCCN2CCCCC2)cc1)c1c(-c2ccc(O)cc2)sc2cc(O)ccc12 [Raloxifene] (10000 nM)							113%	105%	105%	45.7%	125%	98.6%	107%	68.5%	90.1%	71.8%	82.2%	86.8%	49.1%	104%	96.9%	101%	66.1%	79.1%	99.4%	46.1%	62.5%	62.3%	76.7%	82.7%	70.7%
Cn1c(=O)c(F)c(Nc2ccc(I)cc2F)c2c(=O)n(C[C@@H](O)CO)cnc21 [TAK-733]	401 nM		14.2 nM			17.5 nM																									
Cn1c(=O)c(F)c(Nc2ccc(I)cc2F)c2c(=O)n(C[C@@H](O)CO)cnc21 [TAK-733] (1000 nM)							0.83%	60%	66%	51.2%	92.8%	39.7%	35.5%	56.4%	0.81%	76.8%	64.2%	55.3%	82%	78.2%	70.2%	76.7%	97.7%	68.3%	98.9%	73.6%	70.2%	57.4%	43.1%	105%	84%
CCS(=O)(=O)c1cccc(-c2cc(C(=O)NC3CCN(C)CC3)c(C)c3[nH]c4ncc(C)cc4c23)c1 [TAK-901] (1000 nM)							41.2%	16.6%	23.8%	40.2%	105%	30.9%	25.4%	23%	84.9%	57%	52.8%	39.4%	82.3%	49.8%	75.2%	44.4%	104%	64.5%	92.8%	36.4%	45.9%	31.6%	73.4%	80.4%	28.7%
